Results published in patent US6972287B1, “Method of inhibiting amyloid protein aggregation and imaging amyloid deposits” (Pfizer Inc., priority 1999, dated 2005).
Where “and” joins values, the source holds several entries; their conditions need not be identical. Equal values may be shown once.

Columns and labels:
[1] = molecular target: T1, Aβ (1-40) peptide (Homo sapiens, UniProt P05067); assay: BAPA (Beta-Amyloid Peptide Aggregation, pH 6.0, filtration); format: biochemical; conditions: Aβ (1-40) 33 μM, pH 6.0, 2 to 4 hours at room temperature; replicate values; letter = synthetic lot
T1 construct: 10 μL 0.5 mg/mL Aβ (1-40) peptide in 20% HFIP
T1 sequence (P05067 672-711 limits assumed): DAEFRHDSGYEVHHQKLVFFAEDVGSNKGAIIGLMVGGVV
How it was run: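 Aggregation of human Aβ (1-40) peptide was measured in an endpoint filtration assay. The peptide was first reduced to monomer with hexafluoroisopropanol (HFIP), then used at 33 μM so it would aggregate at pH 6.0, and incubated for 2 to 4 hours at room temperature. Filter plates were washed with 100 μL phosphate buffer, impregnated with Meltilex, and counted on a Microbeta counter with background correction.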

[2] = molecular target: T2, Aβ(1-40) (Homo sapiens, UniProt P05067); assay: BASSR (Beta-Amyloid Self-Seeding Radioassay), inhibitors of self-seeded amyloid fibril growth; format: biochemical; conditions: 30 μM soluble Aβ(1-40) + 125I-labeled Aβ(1-40), 37° C., 3 to 5 hours; replicate values; letter = synthetic lot; ppt = precipitate; V-shaped = inhibition followed by precipitation
T2 construct: […]; purchased Bachem, Torrance, Calif
T2 sequence (P05067 672-711 limits assumed): as above
How it was run: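 Self-seeded growth of ^125I-labeled Aβ(1-40) fibrils in 50 mM sodium phosphate pH 7.5, 100 mM NaCl, 0.02% NaN3, 1 M urea; compound (3-fold dilutions from 100 μM final) preincubated 10 min on ice, then 3–5 h at 37° C. Fibrils collected by vacuum filtration on 0.2 μm filters and counted for radioactivity.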

[3] = molecular target: T2, Aβ(1-40); assay: BASST (Beta-Amyloid Self-Seeding, Thioflavin T), inhibitors of self-seeded amyloid fibril growth; format: biochemical; conditions: 30 μM soluble Aβ(1-40), 37° C., 3 to 5 hours, thioflavin T fluorescence; replicate values; letter = synthetic lot; read-out: BASST (IC50 = μM)
How it was run: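 Self-seeded Aβ(1-40) fibril growth was run in 50 mM sodium phosphate pH 7.5, 100 mM NaCl, 0.02% NaN3, 1 M urea. Compounds were tested in 3-fold serial dilutions (top 100 μM final): 10 min on ice, then 3–5 h at 37 °C. Fibrils were read by 5 μM thioflavin T fluorescence (ex 440/em 485 nm).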

[4] = molecular target: T3, Aβ (1-42) (Homo sapiens, UniProt P05067); assay: BATYM assay (Aβ (1-42) aggregation, Thioflavin T fluorescence); format: biochemical; conditions: Aβ 1-42 final concentration 100 μM, 37° C., 1 day, letter = synthetic lot
T3 construct: Required Aβ (1-42) (California Peptide) was dried from its hexafluoroisopropanol (HFIP) stock solution; purchased California Peptide
T3 sequence (P05067 672-713 limits assumed): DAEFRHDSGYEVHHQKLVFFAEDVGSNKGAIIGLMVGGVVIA
How it was run: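 Aβ (1-42) (100 μM final, PBS pH 7.4 from DMSO) incubated with compound at 37° C. for 1 day. Aggregation read by ThT (30 μM, glycine-NaOH pH 8.5) fluorescence, ex 440/em 485 nm; inhibition as fluorescence reduction corrected for compound-alone signal, IC50 by curve fitting from two experiments in triplicate.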

SMILES	IC50 [1]	IC50 [2]	IC50 [3]	IC50 [4]	melting point
O=C(O)c1cc([N+](=O)[O-])ccc1Nc1ccc(CCc2cccc(C(F)(F)F)c2Cl)cc1 [Example 63]	45 µM	15 µM (2×) and 18 µM	1 µM	9.43 µM	207 to 209 °C
Nc1ccc(Nc2ccc(CCc3ccc(Cl)c(Cl)c3)cc2)c(C(=O)O)c1 [Example 64, 5-Amino-2-{4-[2-(3,4-Dichloro-phenyl)-ethyl]-phenylamino}-benzoic acid]	> 100 µM	> 100 µM	5 µM	35 µM	137 to 142 °C
O=C(O)c1cc([N+](=O)[O-])ccc1Nc1ccc(CCc2ccccc2)cc1 [Example 65, 5-Nitro-2-(4-phenethyl-phenylamino)-benzoic acid]	> 100 µM	60 µM and 80 µM	1.5 µM	15.9 µM	198 to 202 °C
O=C(O)c1ccccc1Nc1ccc(CCc2ccc(F)c(C(F)(F)F)c2)cc1 [Example 66, 2-{4-[2-(4-Fluoro-3-trifluoromethyl-phenyl)-ethyl]-phenylamino}-benzoic acid]	> 100 µM	> 100 µM	2.1 µM	50.1 µM	148 to 150 °C
O=C(O)c1cc([N+](=O)[O-])ccc1Nc1ccc(CCc2ccc(F)c(F)c2)cc1 [Example 67, 2-{4-[2-(3,4-Difluoro-phenyl)-ethyl]-phenylamino}-5-nitro-benzoic acid]	> 60 µM	41 µM	4 µM	13.3 µM	203 to 208 °C
O=C(O)c1cc([N+](=O)[O-])ccc1Nc1ccc(CCc2ccc(F)c(C(F)(F)F)c2)cc1 [Example 69, 2-{4-[2-(4-Fluoro-3-trifluoromethyl-phenyl)-ethyl]-phenylamino}-5-nitro-benzoic acid]	58 µM	2 µM and 3.5 µM	0.8 µM	11.7 µM	190 to 193 °C
O=C(O)c1ccccc1Nc1ccc(CCc2ccccc2)cc1 [Example 70, 2-(4-Phenethyl-phenylamino)-benzoic acid]	65 µM	20 µM	10 µM	> 100 µM	173 to 182 °C
O=C(O)c1cccnc1Nc1ccc(CCc2ccc(Cl)c(Cl)c2)cc1 [Example 72, 2-{4-[2-(3,4-Dichloro-phenyl)-ethyl]-phenylamino}-nicotinic acid]	> 60 µM	40 µM and 15 µM and 12 µM	2 µM and 2.5 µM	74.8 µM	168 to 171 °C
O=C(O)c1cc([N+](=O)[O-])ccc1Nc1ccc(CCc2cccc(Cl)c2)cc1 [Example 73, 2-{4-[2-(3-Chloro-phenyl)-ethyl]-phenylamino}-5-nitro-benzoic acid]	> 60 µM	25 µM and 35 µM and 40 µM	0.3 µM	9.43 µM	192.5 to 194.5 °C
O=C(O)c1cc([N+](=O)[O-])ccc1Nc1ccc(CCc2ccc(Cl)cc2)cc1 [Example 74, 2-{4-[2-(4-Chloro-phenyl)-ethyl]-phenylamino}-5-nitro-benzoic acid]	> 60 µM	6 µM and 18 µM (2×) and 19 µM	0.3 µM and 0.5 µM	8.36 µM	210 to 212 °C
Cc1ccc(Nc2ccc(CCc3ccc(Cl)c(Cl)c3)cc2)c(C(=O)O)c1 [Example 75, 2-{4-[2-(3,4-Dichloro-phenyl)-ethyl]-phenylamino}-5-methyl-benzoic acid]	> 60 µM	> 100 µM	2.2 µM	46.2 µM	153 to 160 °C
O=C(O)c1cc([N+](=O)[O-])ccc1Nc1ccc(CCc2ccccc2Cl)cc1 [Example 76, 2-{4-[2-(2-Chloro-phenyl)-ethyl]-phenylamino}-5-nitrobenzoic acid]	> 60 µM	3 µM	0.5 µM	8.59 µM	236 to 238 °C
O=C(O)c1c(Nc2ccc(CCc3ccc(Cl)c(Cl)c3)cc2)cccc1C(F)(F)F [Example 78, 2-{4-[2-(3,4-Dichloro-phenyl)-ethyl]-phenylamino}-6-trifluoromethyl-benzoic acid]	8 µM	70 µM	0.1 µM	> 100 µM	130 to 132 °C
CN(C)c1ccc(Nc2ccc(CCc3ccc(Cl)c(Cl)c3)cc2)c(C(=O)O)c1 [Example 80, 2-{4-[2-(3,4-Dichloro-phenyl)-ethyl]-phenylamino}-5-dimethylamino-benzoic acid]	> 60 µM	> 100 µM	4 µM	24.8 µM	75 to 80 °C

Continued, values first:

IC50 [1]	IC50 [2]	IC50 [3]	IC50 [4]	melting point	SMILES
73 µM	> 100 µM	15 µM	48.4 µM	191 to 194 °C	O=C(O)c1ccccc1Nc1ccc(CCc2cc(Cl)cc(Cl)c2)cc1 [Example 81, 2-{4-[2-(3,5-Dichloro-phenyl)-ethyl]-phenylamino}-benzoic acid]
> 60 µM	> 100 µM	2 µM	> 100 µM	184 to 185 °C	O=C(O)c1ccccc1Nc1ccc(CCc2ccc(F)c(F)c2)cc1 [Example 122, 2-{4-[2-(3,4-Difluoro-phenyl)-ethyl]-phenylamino}-benzoic acid]
80 µM	82 µM	10 µM	> 100 µM	180 to 181 °C	COc1ccc(CCc2ccc(Nc3ccccc3C(=O)O)cc2)c(OC)c1 [Example 125, 2-{4-[2-(2,4-Dimethoxy-phenyl)-ethyl]-phenylamino}-benzoic acid]
63 µM and > 60 µM	> 100 µM (2×) and 30 µM	4 µM (2×) and 5 µM and 10 µM	84 µM and 73.9 µM	140 to 143 °C	O=C(O)c1ccccc1Nc1ccc(CCc2ccccc2Cl)cc1 [Example 126, 2-{4-[2-(2-Chloro-phenyl)-ethyl]-phenylamino}-benzoic acid]
67 µM	> 100 µM	10 µM	> 100 µM	218 to 219 °C	O=C(O)c1ccccc1Nc1ccc(CCc2ccccc2O)cc1 [Example 127, 2-{4-[2-(2-Hydroxy-phenyl)-ethyl]-phenylamino}-benzoic acid]
> 60 µM	> 100 µM	10 µM	93.5 µM	137 to 138 °C	O=C(O)c1cccc(Nc2ccc(CCc3ccc(Cl)c(Cl)c3)cc2)c1 [Example 131, 3-{4-[2-(3,4-Dichloro-phenyl)-ethyl]-phenylamino}-benzoic acid]
> 60 µM	> 100 µM	> 100 µM	> 100 µM	146 to 147 °C	COc1cc(CCc2ccc(Nc3ccccc3C(=O)O)cc2)cc(OC)c1OC [Example 133, 2-{4-[2-(3,4,5-Trimethoxy-phenyl)-ethyl]-phenylamino}-benzoic acid]
> 60 µM	> 100 µM	2 µM	36.5 µM	153 to 154 °C	O=C(O)c1ccccc1Nc1ccc(CCc2ccc(Oc3ccccc3)cc2)cc1 [Example 134, 2-{4-[2-(4-Phenoxy-phenyl)-ethyl]-phenylamino}-benzoic acid]
> 60 µM	> 100 µM	1.2 µM	31.2 µM	106 to 108 °C	O=C(O)c1ccccc1Nc1ccc(CCCCCc2ccc(Cl)c(Cl)c2)cc1 [Example 135, 2-{4-[5-(3,4-Dichloro-phenyl)-pentyl]-phenylamino}-benzoic acid]
114 µM	15 µM and 25 µM	40 µM	> 100 µM	264 to 266 °C	O=C(O)c1ccc(Nc2ccc(CCc3ccc(Cl)c(Cl)c3)cc2)c(C(=O)O)c1 [Example 144, 4-{4-[2-(3,4-Dichloro-phenyl)-ethyl]-phenylamino}-isophthalic acid]
9 µM	10 µM and 40 µM and 30 µM	4 µM	56.8 µM	134 to 136 °C	O=C(O)c1ccc(C(F)(F)F)cc1Nc1ccc(CCc2ccc(Cl)c(Cl)c2)cc1 [Example 145, 2-{4-[2-(3,4-Dichloro-phenyl)-ethyl]-phenylamino}-4-trifluoromethyl-benzoic acid]
